In the supplement of paper PMC11208160:

Assay: recombinant UMI read abundance after kanamycin selection (control-corrected) (log10(CPM+1)); higher = more efficient recombination; extreme values may be limits of the assay; sequences stand for … in AGTGCAGAGAAAATCGGCCAGTTTTCTCTGCCTGCAGTCCGCATGCCGTGGGACCCCTTGGGTTCTAACCTGTTGCCTAGATTTATGCAGCGGACTGCCTTTCTCCCAAAGTGATAAACCGG…AGGTTGGTTTCACT; site = the 11-nt donor
Procedure: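 Pooled E. coli donor-specificity screen for the IS621 bridge recombinase. Each library member carries a reprogrammed 11-nt donor and a full-length LE bridge RNA expressed in cis from the natural promoter, with a paired donor-binding loop (8-nt LDG + 4-nt RDG) and a target-binding loop fixed to T5. It is co-electroporated with a T5 target plasmid; recombinase is induced with 0.07 mM IPTG and recombinants are selected on kanamycin. UMIs are counted as CPM, averaged over two biological replicates and corrected by the unselected control. Molecule = full bridge RNA written as DNA, built from the T5 scaffold: LDG = donor specificity nt 1-8, RDG = reverse complement of nt 8-11.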
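Note: IS621 bridge recombinase in Escherichia coli cells against a fixed T5 target plasmid.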

| Sequence | recombinant UMI read abundance (log10) |
| --- | --- |
| AATCTAACATGGACCGGTTTTCCCGGTAATCCGTATTTGCT (site AATGTAACTAG) | 0.245 |
| AATCTAACATGGACCGGTTTTCCCGGTAATCCGTATTTGCT (site AATTTAACTAG) | 0 |
| AATCTGTCATGGACCGGTTTTCCCGGTAATCCGTATTTGAC (site AATATGTCTGT) | 0 |
| AATCTGTCATGGACCGGTTTTCCCGGTAATCCGTATTTGAC (site AATCTGTCTGT) | 0 |
| AATCTGTCATGGACCGGTTTTCCCGGTAATCCGTATTTGAC (site AATGTGTCTGT) | 0.00511 |
| AATCTGTCATGGACCGGTTTTCCCGGTAATCCGTATTTGAC (site AATTTGTCTGT) | 0 |
| AATGAAACATGGACCGGTTTTCCCGGTAATCCGTATTTGCT (site AATGAAACTAG) | 1.94 |
| AATGAAACATGGACCGGTTTTCCCGGTAATCCGTATTTGCT (site AATGCAACTAG) | 0.479 |
| AATGAAACATGGACCGGTTTTCCCGGTAATCCGTATTTGCT (site AATGGAACTAG) | 0 |
| AATGAAACATGGACCGGTTTTCCCGGTAATCCGTATTTGCT (site AATGTAACTAG) | 1.65 |
| AATGAAGCATGGACCGGTTTTCCCGGTAATCCGTATTTGTC (site AATGAAGCTGA) | 2.09 |
| AATGGATCATGGACCGGTTTTCCCGGTAATCCGTATTTGAC (site AATGGATCTGT) | 2.04 |
| AATGTAACATGGACCGGTTTTCCCGGTAATCCGTATTTGCT (site AAAGTAACTAG) | 1.76 |
| AATGTAACATGGACCGGTTTTCCCGGTAATCCGTATTTGCT (site AACGTAACTAG) | 2.22 |
| AATGTAACATGGACCGGTTTTCCCGGTAATCCGTATTTGCT (site AAGGTAACTAG) | 1.84 |
| AATGTAACATGGACCGGTTTTCCCGGTAATCCGTATTTGCT (site AATATAACTAG) | 2.07 |
| AATGTAACATGGACCGGTTTTCCCGGTAATCCGTATTTGCT (site AATCTAACTAG) | 0.276 |
| AATGTAACATGGACCGGTTTTCCCGGTAATCCGTATTTGCT (site AATGAAACTAG) | 0.0158 |
| AATGTAACATGGACCGGTTTTCCCGGTAATCCGTATTTGCT (site AATGCAACTAG) | 0.239 |

| Sequence | recombinant UMI read abundance (log10) |
| --- | --- |
| AATGTAACATGGACCGGTTTTCCCGGTAATCCGTATTTGCT (site AATGGAACTAG) | 0 |
| AATGTAACATGGACCGGTTTTCCCGGTAATCCGTATTTGCT (site AATGTAACTAA) | 0.0161 |
| AATGTAACATGGACCGGTTTTCCCGGTAATCCGTATTTGCT (site AATGTAACTAC) | 0.00758 |
| AATGTAACATGGACCGGTTTTCCCGGTAATCCGTATTTGCT (site AATGTAACTAG) | 2.26 |
| AATGTAACATGGACCGGTTTTCCCGGTAATCCGTATTTGCT (site AATGTAACTAT) | 0.0618 |
| AATGTAACATGGACCGGTTTTCCCGGTAATCCGTATTTGCT (site AATGTAACTCG) | 0.0789 |
| AATGTAACATGGACCGGTTTTCCCGGTAATCCGTATTTGCT (site AATGTAACTGG) | 1.14 |
| AATGTAACATGGACCGGTTTTCCCGGTAATCCGTATTTGCT (site AATGTAACTTG) | 0.00409 |
| AATGTAACATGGACCGGTTTTCCCGGTAATCCGTATTTGCT (site AATGTACCTAG) | 0 |
| AATGTAACATGGACCGGTTTTCCCGGTAATCCGTATTTGCT (site AATGTAGCTAG) | 0.332 |
| AATGTAACATGGACCGGTTTTCCCGGTAATCCGTATTTGCT (site AATGTATCTAG) | 1.67 |
| AATGTAACATGGACCGGTTTTCCCGGTAATCCGTATTTGCT (site AATGTCACTAG) | 0.198 |
| AATGTAACATGGACCGGTTTTCCCGGTAATCCGTATTTGCT (site AATGTGACTAG) | 0.422 |
| AATGTAACATGGACCGGTTTTCCCGGTAATCCGTATTTGCT (site AATGTTACTAG) | 1.14 |
| AATGTAACATGGACCGGTTTTCCCGGTAATCCGTATTTGCT (site AATTTAACTAG) | 0.682 |
| AATGTAACATGGACCGGTTTTCCCGGTAATCCGTATTTGCT (site ACTGTAACTAG) | 1.84 |
| AATGTAACATGGACCGGTTTTCCCGGTAATCCGTATTTGCT (site AGTGTAACTAG) | 1.51 |
| AATGTAACATGGACCGGTTTTCCCGGTAATCCGTATTTGCT (site ATTGTAACTAG) | 2.07 |
| AATGTAACATGGACCGGTTTTCCCGGTAATCCGTATTTGCT (site CATGTAACTAG) | 2.37 |

| Sequence | recombinant UMI read abundance (log10) |
| --- | --- |
| AATGTAACATGGACCGGTTTTCCCGGTAATCCGTATTTGCT (site GATGTAACTAG) | 1.57 |
| AATGTAACATGGACCGGTTTTCCCGGTAATCCGTATTTGCT (site TATGTAACTAG) | 2.39 |
| AATGTGACATGGACCGGTTTTCCCGGTAATCCGTATTTGCT (site AATGTAACTAG) | 2.04 |
| AATGTGACATGGACCGGTTTTCCCGGTAATCCGTATTTGCT (site AATGTCACTAG) | 0.731 |
| AATGTGACATGGACCGGTTTTCCCGGTAATCCGTATTTGCT (site AATGTGACTAG) | 2.65 |
| AATGTGACATGGACCGGTTTTCCCGGTAATCCGTATTTGCT (site AATGTTACTAG) | 0.751 |
| AATGTGTCATGGACCGGTTTTCCCGGTAATCCGTATTTGAA (site AATGTGTCTAT) | 0.324 |
| AATGTGTCATGGACCGGTTTTCCCGGTAATCCGTATTTGAA (site AATGTGTCTCT) | 0.204 |
| AATGTGTCATGGACCGGTTTTCCCGGTAATCCGTATTTGAA (site AATGTGTCTGT) | 0 |
| AATGTGTCATGGACCGGTTTTCCCGGTAATCCGTATTTGAA (site AATGTGTCTTT) | 2.11 |
| AATGTGTCATGGACCGGTTTTCCCGGTAATCCGTATTTGAC (site AAAGTGTCTGT) | 0 |
| AATGTGTCATGGACCGGTTTTCCCGGTAATCCGTATTTGAC (site AACGTGTCTGT) | 0 |
| AATGTGTCATGGACCGGTTTTCCCGGTAATCCGTATTTGAC (site AAGGTGTCTGT) | 1.02 |
| AATGTGTCATGGACCGGTTTTCCCGGTAATCCGTATTTGAC (site AATATGTCTGT) | 0.433 |
| AATGTGTCATGGACCGGTTTTCCCGGTAATCCGTATTTGAC (site AATCTGTCTGT) | 0 |
| AATGTGTCATGGACCGGTTTTCCCGGTAATCCGTATTTGAC (site AATGAGTCTGT) | 0 |
| AATGTGTCATGGACCGGTTTTCCCGGTAATCCGTATTTGAC (site AATGCGTCTGT) | 0 |
| AATGTGTCATGGACCGGTTTTCCCGGTAATCCGTATTTGAC (site AATGGGTCTGT) | 0 |
| AATGTGTCATGGACCGGTTTTCCCGGTAATCCGTATTTGAC (site AATGTATCTGT) | 1.2 |
